Data taken from a melting point compilation (Tetko et al.; mined from patent text by program, amines drawn as free bases though some values may be those of a salt).

melting point | Compound
214 °C | CCc1cccc(C)c1CNc1cc(C(=O)OC)cn2c(C)nnc12
140 to 141 °C | CCC1CN(Cc2ccccc2)C(=O)C(=C2SC=CS2)C1=O (centres undefined)
94 °C | CN(C=O)CC1(N2CCCCC2)CCCCC1
72 to 74 °C | O=C1c2ccc(F)cc2CC1c1ccc(F)cc1 (centres undefined)
163 to 164 °C | CCc1nn2c(-c3cccc(C(F)(F)F)c3)c(C)cnc2c1C#N
168 to 174 °C | COc1ccc(C(=O)O)c(C(=O)O)c1
198 to 200 °C | Cc1c(NC(=O)CC(C)(C)C)c(C)c2c(c1-c1ccccn1)OCC2c1ccc(C(C)C)cc1 (centres undefined)
115 °C | CN(CCC(=O)O)S(=O)(=O)c1c(Cl)cccc1Cl
113 to 114 °C | Cn1c(Cl)c(Cl)c(C#N)c1Cl
> 250 °C | Nc1nc2cccnc2c2c1nc(CO)n2CC1(O)CCOCC1
186 to 189 °C | CNC(=O)c1c(N)cccc1OC
87 to 88.5 °C | Cc1nc(C(Br)Br)nc(C(Br)Br)n1
58.5 °C | CCC1(COCCCCCCOc2ccc(C(=O)O)cc2)COC1
213 to 215 °C | CCCCc1ncc(/C=C(\Cc2cccs2)C(=O)O)n1Cc1cccc(OC)c1[N+](=O)[O-]
151 to 153 °C | CCOc1cccc(-c2ccc(C3=CCN(S(=O)(=O)CC(=O)NO)CC3)cc2C)c1
165 to 173 °C | CCOP(=O)(O)Cc1ccc(NC(=O)N2CCN(c3ccc(NC(=O)Nc4cc(C)ccc4OC)cc3)CC2)c(C)c1
193 to 195 °C | COc1nc2ccccc2nc1NC(=S)N1CCN(c2cc(C)cc(C)c2)CC1
117 to 119 °C | CCN1CC(NC(=O)c2cc(Cl)c(N)cc2OC)CN1CC
47 to 53 °C | CC(=O)C1(CCC(=O)OC(C)(C)C)CCCCC1=O (centres undefined)
192 to 193 °C | Cc1oc(-c2ccccc2)nc1COc1ccc(C=NO)cc1
203 °C | COc1ccc2c(c1)CC(NCC(=O)O)CC2 (centres undefined)
81 to 83 °C | CC(C)c1nc(C(C)C)c(CNC2CC2)c(-c2ccc(F)cc2)c1CO
142 to 143 °C | CN(C)C(=O)CNc1ccncc1[N+](=O)[O-]
80 to 85 °C | CC(C)NC1C(n2cccn2)=NNN1S (centres undefined)
87 to 88 °C | CSc1snc(SCOCC#CI)c1C#N

melting point | Compound
121 to 124 °C | CC(O)c1nccc(=O)[nH]1 (centres undefined)
119 to 120 °C | Cc1cc(NS(=O)(=O)c2ccccc2)cnc1CCCC#N
148 to 150 °C | Cc1oc(-c2ccccc2)nc1CCOc1ccc(CN(O)C(N)=O)cc1
168 to 170 °C | COC(=O)[C@H](Cc1cc(Cl)c(OCc2cccc3nc(-c4ccccc4)oc23)c(Cl)c1)NC(=O)C(F)(F)F
49 to 51 °C | COCCCc1cc(Cl)cc2nc(Cc3ccccc3Cl)oc12
166 to 167 °C | COc1cc(CCC(=O)c2c(O)cc(O)c(CCC(C)C)c2O)cc(OC)c1O
136 to 137 °C | COc1ccc(S(=O)(=O)n2ccc3ccnc(-c4ccc(F)cc4)c32)cc1
334 to 337 °C | O=C(O)c1ccc2nc(-c3ccc(C(=O)NC4CCCCC4)cc3)[nH]c2c1
97 to 100 °C | CN(Cc1ccccc1)[C@@H](CC(N)=O)C(=O)N[C@@H](Cc1ccccc1)[C@H](O)C(=O)N1CCC[C@H]1C(=O)NC(C)(C)C
158 to 159 °C | CCOc1ccc(CC(C)=O)cc1S(N)(=O)=O
46 to 48 °C | CCOC(=O)c1c(OC(C)C)c(Br)c(Br)n1Cc1ccccc1
220 to 222 °C | Cn1c2ccccc2c(=O)c2c(-c3cccc(O)c3)c(Cl)cc(Cl)c21
150 to 152 °C | COC(=O)c1ccc(Cn2c(C(F)(F)F)nc3cc(C)c(C)cc32)cc1
83 °C | C=CC[C@@]1(NC(=O)OC(C)(C)C)C(=O)[C@@H](C(C)C)N(C(=O)OC(C)(C)C)C1=O
89 to 92 °C | CCCCn1c(=O)c2nn(S(=O)(=O)c3c(Cl)cc(Cl)cc3Cl)cc2n(CCCC)c1=O
119 to 121 °C | COC(=O)c1nc(N(C)C(C)=O)ccc1Oc1nc(OC)cc(OC)n1
118 to 119 °C | CCOC(=O)n1c(C(=O)c2ccccc2)c(N)c2c(Cl)cccc21
132 to 134 °C | COc1ccc(-c2nc(-c3ccc[nH]3)sc2-c2ccc(OC)cc2)cc1
125 to 126 °C | CC(=O)NCCc1cccc2ccc(O)cc12
87 to 88 °C | CCCN(CCC)C(=O)CNc1nc(-c2ccccc2)nc2c1CCCC2
140 to 142 °C | CCC(=O)c1ccsc1N
169 to 171 °C | O=C(O)CCNC(=O)NCCCN1CCN(c2ccccc2)CC1
156 to 157 °C | COC(=O)CCC(C)C1CC=C2C3=C(CCC21C)C1(C)CCC(O)C(C)(C)C1CC3 (centres undefined)
208 to 210 °C | FC(F)(F)Oc1ccc2nc(-c3ccccc3)[nH]c2c1
78 to 82 °C | C=CCNc1nc(NCC=C)nc(N2CCN(C(=O)n3ccnc3)CC2)n1

melting point | Compound
140 to 143 °C | CCCN1NC(c2ccc(C)cc2)C2=C1C(=Cc1ccc(C)cc1)CSC2 (centres undefined)
89 to 90 °C | CN(O)C(=O)C1CCC(C2CCCCC2)CC1 (centres undefined)
176 °C | CC(C)(C)NC(=O)c1ccc2[nH]ccc2c1
172 to 173 °C | O=C(NC1CCCCC1O)c1ccccc1 (centres undefined)
185 to 186 °C | O=c1c(CCCc2ccoc2)cc2cccnc2n1-c1cccc([N+](=O)[O-])c1
232 °C | CC(C)c1c(S(=O)(=O)c2ccc(O)cc2)c2ccccn2c1C#N
146 to 147 °C | COC(=O)C(=CN1c2ccc(F)c(F)c2OCC1C)C(=O)OC (centres undefined)
95 to 95.5 °C | CC1CCN(c2nn3ccnc3c3c2CCCC3)CC1
187 to 189 °C | Clc1cccc(Cl)c1Cn1c(-c2ccc3c(c2)OCO3)nc2ccccc21
58 to 62 °C | COC(=O)CCC(=O)c1ccc(-c2ccc(C(C)(C)C)cc2)cc1
75 to 79 °C | COC(=O)c1cccc(C2CCCS2)c1N (centres undefined)
172 °C | COc1cc(-c2ccc(C(C)C)cc2)c(C)c2oc(=O)c(C)c(C)c12
44 to 52 °C | CC(C)(C)NSc1cnccn1
119 °C | CCN(CC)C(=O)c1cc2sccc2c(-c2ccccc2Cl)n1
229 to 231 °C | O=C(O)Cc1nn(-c2ccccn2)c2[nH]c3ccccc3c(=O)c12
163 to 165 °C | CC(C)CC(=O)Nc1cccc(-c2ccnc3c(-c4cccc(C=O)c4)cnn23)c1
125 to 127 °C | O=C(O)C1(CSCc2ccccc2)Cc2ccccc2O1 (centres undefined)
251 to 253 °C | OCC1CC(O)C(n2c(NC3CC3)nc3cc(Cl)c(Cl)cc32)C1 (centres undefined)
98 to 100 °C | COc1cc(N2CCN(C[C@H](C)O)CC2)ccc1Nc1ncc2ccc(-c3ccccc3S(C)(=O)=O)n2n1
46 to 47 °C | COc1ccccc1C(=O)c1ccc(Cl)nc1
134 to 135 °C | COc1ccc(-c2cc3ccccc3[nH]2)cc1NCc1ccc([N+](=O)[O-])c(O)c1
133 to 136 °C | O=C1CCOc2ccc(O)cc21
154 to 155 °C | CC(C(N)=O)c1ccc2c(c1)C(=O)Cc1ccccc1O2 (centres undefined)
196 to 199 °C | CCCCCCn1c(=O)n(C2OC(CO)C(O)C2O)c2nc(N)[nH]c(=O)c21 (centres undefined)
290 to 292 °C | Cn1cc(C(=O)O)c(=O)c2sc(-c3ccccc3)cc21

melting point | Compound
46 to 47 °C | CCC(O)(c1ccc(OCCN(C(C)C)C(C)C)cc1)c1ccccc1OC (centres undefined)
112 to 114 °C | O=[N+]([O-])c1cccc(OCc2csc(-c3ccccc3)n2)c1
228 to 230 °C | Cc1ccc(-c2ccccc2C(=O)Nc2ccc(C(=O)N3C[C@H]4CCCN4c4ccccc43)cc2)cc1
201 to 202 °C | CSc1nccc(NC(N)=NCC(F)(F)F)n1
> 300 °C | O=c1ccn(-c2cc3[nH]c(=O)c(=O)[nH]c3cc2[N+](=O)[O-])cc1
158 to 160 °C | N#Cc1cnc2ccsc2c1Oc1ccc(Cl)cc1Cl
98 to 101 °C | Cc1ccc(C(C)C)c2c1CC(NNc1ncnc3c1ncn3C1OC(CO)C(O)C1O)CO2 (centres undefined)
90 to 92 °C | O=C1c2ccccc2C(=O)N1CCCCCCc1cccnc1
53 to 55 °C | COc1cc(C(C)=O)ccc1SCCCCl
225 °C | CCc1ccc2c(c1)C=Cc1cc(O)ccc1C2c1cn(-c2ccnc(NCC(=O)Nc3nc(CC(=O)O)cs3)n2)c(=O)[nH]c1=O (centres undefined)
167 °C | CC1C(=O)Nc2ccc(Cl)cc2N1C1CC1 (racemic)
135 to 137 °C | CCNC(=O)C(C)Oc1ncn(-c2cccc(C(F)(F)F)c2)n1 (centres undefined)
90 to 91 °C | COC(=O)c1ccc(C(=O)NCC(C)C)c([N+](=O)[O-])c1
176 to 177 °C | CNC(=O)c1ccc(N2CC(CNC(C)=S)OC2=O)cc1F (centres undefined)
103 to 105 °C | CCCCc1nc(C(=O)C(C)(C)C)c(C#N)n1Cc1ccc(-c2ccccc2-c2nnnn2C(c2ccccc2)(c2ccccc2)c2ccccc2)cc1
252 to 254 °C | COc1ccc(S(=O)(=O)c2ccc(NC(=O)NC34CC5CC(CC(C5)C3)C4)cc2)nn1
51 to 59 °C | CCOC(=O)CC(=O)c1cc(F)c(Br)c(F)c1F
118 to 120 °C | O=C(Nc1ccc(N2CCN(C(=O)Nc3ccc(OCCO)cc3C(F)(F)F)CC2)cc1)Nc1ccccc1OC(F)F
66 to 67 °C | CCOC(=O)/C=C/C(=C(c1ccc(F)cc1)c1ccc(F)cc1)C(C)C
227 °C | COc1ccc(C2c3[nH]c4ccccc4c3CCN2C(=O)C=Cc2cccc([N+](=O)[O-])c2)cc1 (centres undefined)
76 to 80 °C | O=C(c1cccs1)N(CCCCn1ccnc1)C1=Nc2cccc3cccc1c23
225 to 226 °C | Fc1ccc(Nc2nc(N/N=C/c3ccc4ccccc4c3)nc(N3CCOCC3)n2)cc1
39 to 41 °C | CC1OC(=S)c2c(O)cccc21 (centres undefined)

Compound | melting point
CN1C[C@H](CN2CCC(O)(c3ccc(Cl)cc3)CC2)C=C2c3cccc4c3c(cn4C)C[C@H]21 | 101 to 107 °C
OC1(c2ccc(Cl)cc2)CCNC1 (centres undefined) | 79 to 80 °C
CN1Cc2c(C(N)=S)ncn2-c2ccccc2C1=O | 295 to 297 °C
COc1ccc2c(c1)N(CC1CN3CCC1CC3)c1ccccc1S2 (centres undefined) | 135 to 136 °C
COC(=O)c1ccc(CC(C)NCC(O)c2cccc(Cl)c2)cc1 (centres undefined) | 94 to 96 °C
BrCc1ccc(CBr)c(Br)c1 | 90 to 91 °C
